Results from US9848603B2, “Methods for protecting plants with antifungal compositions” (priority 2008, dated 2017).
Ends that are not written are not given here.

What was measured:
Fov hyphae [1] = assay: Detection of reactive oxygen species (DHR123 oxidation) in response to NaD1; conditions: for effect of ROS scavenger on NaD1-induced DHR123 oxidation: in the presence of ascorbic acid or TEMPO
[2] = test system: Fusarium oxysporum f. sp. vasinfectum (Fov); format: cell-based
[3] = test system: Fusarium oxysporum f. sp. vasinfectum (Fov); assay: Growth of Fusarium oxysporum in the presence of NaD1 and chemical fungicides in vitro; format: cell-based; conditions: Fov growth curves, combination with NaD1
Method: The inhibitory effects of defensin (NaD1) and chemical fungicides on the growth of Fusarium oxysporum f. sp. vasinfectum (Fov) (Australian isolate VCG01111 isolated from cotton and provided by Farming Systems Institute, DPI, Queensland, Australia) were measured essentially as described by Broekaert, et al (1990). Spores were isolated from sporulating cultures growing in ½ strength potato dextrose broth (PDB). The Fov culture was grown in ½ PDB for 1-2 weeks at room temperature, before spores were separated from hyphal matter by filtration through sterile tissue paper. The concentration of spores in the filtrate was measured using a hemocytometer. NaD1 and the fungicides were prepared as described in Example 1. The conditions used for the fungal growth assay were the same as those described in Example 1.

Leptosphaeria maculans = assay: Growth of Leptosphaeria maculans in the presence of NaD1 and chemical fungicides in vitro; format: cell-based; conditions: L. maculans, combination with NaD1
Method: The defensin (NaD1) and the chemical fungicides prothioconazole (Sigma-Aldrich Cat #34232, 99.9% pure) and fluquinconazole (Nova Chem, Cat #C13805000, 98.5% pure) were assessed for their individual and combined inhibitory effects on the growth of Leptosphaeria maculans (Australian isolate IBCN18, Prof. B. Howlett) in vitro.
Leptosphaeria maculans was grown in 10% (v/v) V8 medium for about 2 weeks. Spores were collected by filtration through sterile muslin and adjusted to a final concentration of 5×10^4 spores/mL. The conditions used for the fungal growth assay were the same as those described in Example 1 except 10% (v/v) V8 medium was used.

Verticillium dahliae = assay: Growth of Verticillium dahliae in the presence of NaD1 and chemical fungicides in vitro; format: cell-based; conditions: V. dahliae growth curves, combination with NaD1
Method: The inhibitory effects of defensin (NaD1) and chemical fungicides were assayed on growth of Verticillium dahliae (Australian isolate VCG-4B, Dr. Stephen Allen, Cotton Seed Distributors, Narrabri, NSW, Australia) in vitro.
Spores of V. dahliae were isolated from sporulating cultures growing in Czapek-Dox broth (Difco) for 1-2 weeks at room temperature. Spores were separated from hyphal matter by filtration through sterile tissue paper and the concentration of spores in the filtrate was measured using a hemocytometer. NaD1 and the fungicides were prepared as described in Example 1. The conditions used for the fungal growth assay were the same as those described in Example 1 except that Czapek-Dox broth was used in place of PDB.

Fusarium graminearum = assay: microbe, parasite or virus in culture; format: cell-based
Saccharomyces cerevisiae = assay: Effect of NaD1 on growth of yeast strains
Method: (§1) The effect of NaD1 on the growth of the yeast strains Candida albicans, Pichia pastoris and Saccharomyces cerevisiae (from Department of Microbiology, La Trobe University) was assayed in microtitre plates. Cells were grown in YPD for 48 h, then counted using a haemocytometer and diluted to a concentration of 5×10^4 cells/mL in fresh YPD. Cell suspension (100 μL) containing 0-10 μM NaD1 was added to the wells of a 96-well microtitre plate and incubated for 48 h at 30° C. Growth was determined by measuring the optical density at 595 nm using a microtitre plate reader. Each test was performed in quadruplicate.

Fov hyphae [4] = assay: Uptake of fluorescently labeled NaD1 (NaD1-bimane) by fluorescence microscopy; conditions: live hyphae
Method: Hyphae grown for 18 h as described were treated with NaD1-bimane (2 μM) for between 10 min and 6 h. Hyphae were then visualized by fluorescence microscopy using an MWU filter (excitation wavelength of 330-385 nm).

Fov hyphae [5] = assay: Membrane permeabilization of Fov hyphae, SYTOX green uptake; format: cell-based, Fusarium oxysporum f. sp. vasinfectum; conditions: 0.1, 2 or 10 μM NaD1 or 10 μM NaD1R&A
Candida albicans = assay: Effect of NaD1 on growth of yeast strains
Method: as §1

With `CC1(C)CCCC(C)(C)N1[O]` [TEMPO] the “effect of ROS scavenger on NaD1-induced DHR123 oxidation” value (Fov hyphae [1]) was “did not alter the level of fluorescence”.

For `O=C1O[C@H]([C@@H](O)CO)C(O)=C1O` [ascorbic acid, Ascorbic acid], the “effect of ROS scavenger on NaD1-induced DHR123 oxidation” value (Fov hyphae [1]) was “did not alter the level of fluorescence” and the “effect of ROS scavenger on growth inhibition of Fov by NaD1” value [2] was “nor did the presence of 10 mM ascorbic acid affect growth inhibition of Fov by NaD1”.

`CO/C=C(/C(=O)OC)c1ccccc1Oc1cc(Oc2ccccc2C#N)ncn1` [azoxystrobin] was tested, and the “synergism with NaD1” value [3] was “synergistic effect”.

For `CO/N=C(/C1=NOCCO1)c1ccccc1Oc1ncnc(Oc2ccccc2Cl)c1F` [fluoxastrobin], the “synergism with NaD1” value [3] was “synergy”.

In the case of `O=c1c2cc(F)ccc2nc(-n2cncn2)n1-c1ccc(Cl)cc1Cl` [fluquinconazole], the “enhancement of fungicide activity by defensin” value (Leptosphaeria maculans) is reported as “synergistic”.

`C[Si](Cn1cncn1)(c1ccc(F)cc1)c1ccc(F)cc1` [flusilazole] was tested, and the “synergism with NaD1” value (Verticillium dahliae) was “Synergism”.

`CO/C=C(/C(=O)OC)c1ccccc1COc1cccc(C(F)(F)F)n1` [picoxystrobin] was tested, and the “synergism with NaD1” value [3] was “synergy”.

For `CCCC1COC(Cn2cncn2)(c2ccc(Cl)cc2Cl)O1` (stereo not drawn) [propiconazole], the “synergism with NaD1” value (Verticillium dahliae) was “Synergism”, the “toxicity with Fusarium graminearum” value (Fusarium graminearum; 0.24 μM NaD1 combined with 1 mg/L propiconazole) was “significantly enhanced” and the “synergism with NaD1” value (Fusarium graminearum; F. graminearum growth curves, combination with NaD1) was “Synergism”. The inhibition at 0.06 µg/mL (Fusarium graminearum; Fusarium graminearum, read-out: inhibition of fungal growth) was roughly 13%, the “inhibition of fungal growth” value (Fusarium graminearum; combination of 0.5 μM defensin and 0.06 mg/L propiconazole) was “about 78%” and the “synergism with NaD1” value [3] was “Synergism”.

For `OC(Cc1ccccc1Cl)(Cn1nc[nH]c1=S)C1(Cl)CC1` (stereo not drawn) [prothioconazole], the “enhancement of fungicide activity by defensin” value (Leptosphaeria maculans) was “synergistic”.

`CC(C)(C)C(O)(CCc1ccc(Cl)cc1)Cn1cncn1` (stereo not drawn) [tebuconazole] was tested, and the “synergism with NaD1” value (Verticillium dahliae) was “Synergism”.

In the case of “DmAMP1: plant defensin from dahlia (ELCEKASKTWSGNCGNTGHCDNQCKSWEGAAHGACHVRNGKHMCFCYFNC; UniProt P0C8Y4 1-50, looked up) [reference compound]”, the effect on growth (Saccharomyces cerevisiae) is reported as “inhibited the growth”.

In the case of “NaD1 labeled with FITC: NaD1 labeled with FITC via reactive amine groups (RECKTESNTFPGICITKPPCRKACISEKFTDGHCSKILRRCLCTKPC; cysteine pairing not given here; also: FITC label via reactive amine groups; UniProt Q8GTM0 26-72, looked up)”, the “antifungal activity of labeled NaD1” value [2] is reported as “not biologically active”.

In the case of “NaD1-bimane: NaD1 labeled with the fluorophore bimane amine on carboxyl residues (RECKTESNTFPGICITKPPCRKACISEKFTDGHCSKILRRCLCTKPC; cysteine pairing not given here; also: bimane amine fluorophore on carboxyl residues; UniProt Q8GTM0 26-72, looked up)”, the “antifungal activity of labeled NaD1” value [2] is reported as “retained full antifungal activity” and the “time at which internalization was observed” value (Fov hyphae [4]) is reported as 20 to 30 min.

“NaD1R&A: NaD1 with cysteine residues reduced and alkylated (RECKTESNTFPGICITKPPCRKACISEKFTDGHCSKILRRCLCTKPC; also: cysteines reduced and alkylated; UniProt Q8GTM0 26-72, looked up)” was tested, and the “ROS production (DHR123 oxidation fluorescence)” value (Fov hyphae [1]; NaD1 0.1, 2 and 10 μM or 10 μM NaD1R&A) was “No fluorescence was observed”, the “permeabilization of hyphae (SYTOX green)” value (Fov hyphae [5]) was “Permeabilization was not observed” and the “activity in growth inhibitory assays” value [2] was “completely inactive”.

With “RsAFP2: plant defensin from radish (QKLCQRPSGTWSGVCGNNNACKNQCIRLEKARHGSCNYVFPAHKCICYFPC; UniProt P30230 30-80, looked up) [reference compound]” the effect on growth (Candida albicans) was “inhibited the growth”.
